Assays:
NCI-H1299 = experiment: Antiproliferative activity against human NCI-H1299 cells assessed as reduction in cell viability after 72 hrs by MTT assay; format: functional, cell-based; conditions: NCI-H1299, 72 h
MDA-MB-231 = experiment: Antiproliferative activity against human MDA-MB-231 cells assessed as reduction in cell viability after 72 hrs by MTT assay; format: functional, cell-based; conditions: MDA-MB-231, 72 h
MCF7 = experiment: Antiproliferative activity against human MCF7 cells assessed as reduction in cell viability after 72 hrs by MTT assay; format: functional, cell-based; conditions: MCF7, 72 h
MDA-MB-453 = experiment: Antiproliferative activity against human MDA-MB-453 cells assessed as reduction in cell viability after 72 hrs by MTT assay; format: functional, cell-based; conditions: MDA-MB-453, 72 h
[1] = target: T1, CDK6/cyclin D3 (Homo sapiens) (UniProt P30281+Q00534); experiment: Inhibition of CDK6/Cyclin D3 (unknown origin) at 200 nM using ATP by mobility shift assay; format: protein-complex assay
[2] = target: T2, Cyclin-dependent kinase 4/cyclin D1 (Homo sapiens) (UniProt P11802+P24385); experiment: Inhibition of CDK4/Cyclin D1 (unknown origin) at 20 nM using ATP by mobility shift assay; format: protein-complex assay
[3] = target: T2, Cyclin-dependent kinase 4/cyclin D1 (Homo sapiens); experiment: Inhibition of CDK4/Cyclin D1 (unknown origin) at 200 nM using ATP by mobility shift assay; format: protein-complex assay
[4] = target: T1, CDK6/cyclin D3 (Homo sapiens); experiment: Inhibition of CDK6/Cyclin D3 (unknown origin) at 20 nM using ATP by mobility shift assay; format: protein-complex assay

| SMILES | IC50 (NCI-H1299) [µM] | IC50 (MDA-MB-231) [µM] | IC50 (MCF7) [µM] | IC50 (MDA-MB-453) [µM] | inhibition [1] [%] | inhibition [2] [%] | inhibition [3] [%] | inhibition [4] [%] |
| --- | --- | --- | --- | --- | --- | --- | --- | --- |
| CC(=O)c1c(C)c2cnc(Nc3ccc(N4CCN(CC(=O)NCCOCCOCCNCC#N)CC4)cn3)nc2n(C2CCCC2)c1=O | > 20 | > 20 | > 20 | > 20 | – | – | – | – |
| CCC(=O)N1CCN(c2ccc(Nc3ncc4c(C)c(C(C)=O)c(=O)n(C5CCCC5)c4n3)nc2)CC1 | > 50 | 142 | 25.7 | 71.5 | 103 | 43 | 91.4 | 69.8 |
| C=CC(=O)NCCCCCCNC(=O)CN1CCN(c2ccc(Nc3ncc4c(C)c(C(C)=O)c(=O)n(C5CCCC5)c4n3)nc2)CC1 | > 20 | 14.8 | > 20 | > 20 | – | – | – | – |
| C=CC(=O)NCCOCCNC(=O)CN1CCN(c2ccc(Nc3ncc4c(C)c(C(C)=O)c(=O)n(C5CCCC5)c4n3)nc2)CC1 | > 20 | > 20 | > 20 | 15.4 | – | – | – | – |
| CC(=O)c1c(C)c2cnc(Nc3ccc(N4CCN(C(C)=O)CC4)cn3)nc2n(C2CCCC2)c1=O | > 50 | > 50 | > 50 | > 50 | 100 | 43.2 | 87.8 | 68.5 |
| C=CC(=O)NCCOCCOCCNC(=O)CN1CCN(c2ccc(Nc3ncc4c(C)c(C(C)=O)c(=O)n(C5CCCC5)c4n3)nc2)CC1 | > 20 | > 20 | > 20 | 10.2 | – | – | – | – |
| C=CC(=O)NCCOCCNC(=O)CCN1CCN(c2ccc(Nc3ncc4c(C)c(C(C)=O)c(=O)n(C5CCCC5)c4n3)nc2)CC1 | > 20 | > 20 | > 20 | 5.25 | – | – | – | – |
| C=CC(=O)NCCCNC(=O)CCN1CCN(c2ccc(Nc3ncc4c(C)c(C(C)=O)c(=O)n(C5CCCC5)c4n3)nc2)CC1 | > 20 | 18.3 | > 20 | > 20 | – | – | – | – |
| CC(=O)c1c(C)c2cnc(Nc3ccc(N4CCN(CCC(=O)NCCOCCOCCNCC#N)CC4)cn3)nc2n(C2CCCC2)c1=O | > 20 | > 20 | > 20 | > 20 | – | – | – | – |
| CC(=O)c1c(C)c2cnc(Nc3ccc(N4CCN(CC(=O)NCCCCNC(=O)CCl)CC4)cn3)nc2n(C2CCCC2)c1=O | > 20 | 8.32 | 12.4 | 8.93 | 104 | 63 | 94.8 | 82.9 |
| CC(=O)c1c(C)c2cnc(Nc3ccc(N4CCN(CCC(=O)NCCOCCNC(=O)CCl)CC4)cn3)nc2n(C2CCCC2)c1=O | > 20 | > 20 | 11.5 | 6.11 | 103 | 60.5 | 94.4 | 91.2 |
| CC(=O)c1c(C)c2cnc(Nc3ccc(N4CCN(CC(=O)NCCCCCCNCC#N)CC4)cn3)nc2n(C2CCCC2)c1=O | > 20 | > 20 | > 20 | > 20 | – | – | – | – |
| CC(=O)c1c(C)c2cnc(Nc3ccc(N4CCN(CCC(=O)NCCNCC#N)CC4)cn3)nc2n(C2CCCC2)c1=O | > 20 | > 20 | > 20 | > 20 | – | – | – | – |
| CC(=O)c1c(C)c2cnc(Nc3ccc(N4CCN(CCC(=O)NCCOCCOCCNC(=O)CCl)CC4)cn3)nc2n(C2CCCC2)c1=O | > 20 | 8.92 | 15.8 | 9.2 | – | – | – | – |
| CC(=O)c1c(C)c2cnc(Nc3ccc(N4CCN(CC(=O)NCCNCC#N)CC4)cn3)nc2n(C2CCCC2)c1=O | > 20 | > 20 | > 20 | 9.89 | – | – | – | – |
| C=CC(=O)NCCCCNC(=O)CCN1CCN(c2ccc(Nc3ncc4c(C)c(C(C)=O)c(=O)n(C5CCCC5)c4n3)nc2)CC1 | > 20 | > 20 | > 20 | > 20 | – | – | – | – |
| CC(=O)c1c(C)c2cnc(Nc3ccc(N4CCN(CC#N)CC4)cn3)nc2n(C2CCCC2)c1=O | > 20 | 17.9 | > 20 | > 20 | – | – | – | – |
| CC(=O)c1c(C)c2cnc(Nc3ccc(N4CCN(CCC(=O)NCCCCNC(=O)CCl)CC4)cn3)nc2n(C2CCCC2)c1=O | > 20 | > 20 | 16.6 | 7.01 | 100 | 52.1 | 92 | 89.2 |
| CC(=O)c1c(C)c2cnc(Nc3ccc(N4CCN(CC(=O)NCCOCCOCCNC(=O)CCl)CC4)cn3)nc2n(C2CCCC2)c1=O | > 20 | > 20 | > 20 | > 20 | – | – | – | – |
| CC(=O)c1c(C)c2cnc(Nc3ccc(N4CCN(CCC(=O)NCCCCCCNCC#N)CC4)cn3)nc2n(C2CCCC2)c1=O | > 20 | > 20 | > 20 | > 20 | – | – | – | – |
| CC(=O)c1c(C)c2cnc(Nc3ccc(N4CCN(CC(=O)NCCCCNCC#N)CC4)cn3)nc2n(C2CCCC2)c1=O | > 20 | > 20 | > 20 | > 20 | – | – | – | – |
| CC(=O)c1c(C)c2cnc(Nc3ccc(N4CCN(CCC(=O)NCCNC(=O)CCl)CC4)cn3)nc2n(C2CCCC2)c1=O | > 20 | > 20 | > 20 | > 20 | – | – | – | – |
| CC(=O)c1c(C)c2cnc(Nc3ccc(N4CCN(CCC(=O)NCCCCCCNC(=O)CCl)CC4)cn3)nc2n(C2CCCC2)c1=O | > 20 | > 20 | > 20 | > 20 | – | – | – | – |
| C=CC(=O)NCCCNC(=O)CN1CCN(c2ccc(Nc3ncc4c(C)c(C(C)=O)c(=O)n(C5CCCC5)c4n3)nc2)CC1 | > 20 | 18 | > 20 | > 20 | – | – | – | – |

Next, values leading:

| IC50 (NCI-H1299) [µM] | IC50 (MDA-MB-231) [µM] | IC50 (MCF7) [µM] | IC50 (MDA-MB-453) [µM] | inhibition [1] [%] | inhibition [2] [%] | inhibition [3] [%] | inhibition [4] [%] | SMILES |
| --- | --- | --- | --- | --- | --- | --- | --- | --- |
| 8.5 | > 20 | > 20 | 6.96 | – | – | – | – | C=CC(=O)N1CCN(c2ccc(Nc3ncc4c(C)c(C(C)=O)c(=O)n(C5CCCC5)c4n3)nc2)CC1 |
| > 20 | > 20 | > 20 | > 20 | – | – | – | – | CC(=O)c1c(C)c2cnc(Nc3ccc(N4CCN(CCC(=O)NCCOCCNCC#N)CC4)cn3)nc2n(C2CCCC2)c1=O |
| > 20 | > 20 | > 20 | 8.19 | – | – | – | – | C=CC(=O)NCCOCCOCCNC(=O)CCN1CCN(c2ccc(Nc3ncc4c(C)c(C(C)=O)c(=O)n(C5CCCC5)c4n3)nc2)CC1 |
| > 20 | > 20 | > 20 | > 20 | – | – | – | – | C=CC(=O)NCCCCCCNC(=O)CCN1CCN(c2ccc(Nc3ncc4c(C)c(C(C)=O)c(=O)n(C5CCCC5)c4n3)nc2)CC1 |
| > 20 | > 20 | > 20 | > 20 | – | – | – | – | C=CC(=O)NCCCCNC(=O)CN1CCN(c2ccc(Nc3ncc4c(C)c(C(C)=O)c(=O)n(C5CCCC5)c4n3)nc2)CC1 |
| > 20 | 18.7 | > 20 | > 20 | – | – | – | – | C=CC(=O)NCCNC(=O)CN1CCN(c2ccc(Nc3ncc4c(C)c(C(C)=O)c(=O)n(C5CCCC5)c4n3)nc2)CC1 |
| 19.2 | > 20 | > 20 | 15.5 | – | – | – | – | CC(=O)c1c(C)c2cnc(Nc3ccc(N4CCN(CC(=O)NCCCNCC#N)CC4)cn3)nc2n(C2CCCC2)c1=O |
| 8.88 | 9.89 | 14.5 | 5.11 | 98.2 | 45.7 | 90.9 | 71.3 | CC(=O)c1c(C)c2cnc(Nc3ccc(N4CCN(CC(=O)NCCCCCCNC(=O)CCl)CC4)cn3)nc2n(C2CCCC2)c1=O |
| > 20 | > 20 | > 20 | > 20 | – | – | – | – | CC(=O)c1c(C)c2cnc(Nc3ccc(N4CCN(CCC(=O)NCCCNCC#N)CC4)cn3)nc2n(C2CCCC2)c1=O |
| > 20 | > 20 | > 20 | > 20 | – | – | – | – | CC(=O)c1c(C)c2cnc(Nc3ccc(N4CCN(CC(=O)NCCOCCNCC#N)CC4)cn3)nc2n(C2CCCC2)c1=O |
| > 20 | 10.2 | 2.39 | 7.6 | 104 | 60.8 | 93.4 | 81.6 | CC(=O)c1c(C)c2cnc(Nc3ccc(N4CCN(CC(=O)NCCNC(=O)CCl)CC4)cn3)nc2n(C2CCCC2)c1=O |
| > 20 | > 20 | > 20 | > 20 | – | – | – | – | C=CC(=O)NCCNC(=O)CCN1CCN(c2ccc(Nc3ncc4c(C)c(C(C)=O)c(=O)n(C5CCCC5)c4n3)nc2)CC1 |
| 8.42 | 12.5 | > 20 | 12.8 | – | – | – | – | CC(=O)c1c(C)c2cnc(Nc3ccc(N4CCN(CCC(=O)NCCCCNCC#N)CC4)cn3)nc2n(C2CCCC2)c1=O |
| 7.41 | 7.8 | 5.22 | 1.92 | 101 | 56.9 | 91.7 | 92.1 | CC(=O)c1c(C)c2cnc(Nc3ccc(N4CCN(CC(=O)NCCCNC(=O)CCl)CC4)cn3)nc2n(C2CCCC2)c1=O |
| 16.1 | > 20 | 4.25 | 3.55 | 102 | 61.4 | 92.7 | 76.7 | CC(=O)c1c(C)c2cnc(Nc3ccc(N4CCN(CC(=O)NCCOCCNC(=O)CCl)CC4)cn3)nc2n(C2CCCC2)c1=O |

— ChEMBL document CHEMBL4819081 (Eur J Med Chem, 2021)
